# Patent publication US11744824B2, “2-amino-3-carbonyl imidazopyridine and pyrazolopyridine compounds” (1ST Biotherapeutics, Inc., priority 2020, dated 2023)
# Biological target: GST-tagged recombinant human RIP2 (Homo sapiens (Human), UniProt O43353)
# Assay: RIP2 Kinase Assay (ADP-Glo)
# Assay type: biochemical
# Settings: in vitro kinase activity, ATP 25 μM
# Experimental: GST-tagged recombinant human RIP2 (25 ng) is incubated with 5 μL of compounds (0.5% DMSO), 5 μL of MBP (0.5 μg/μl) and 5 μL of ATP (25 μM) in buffer (40 mM Tris, 7.5; 20 mM MgCl2; 0.1 mg/ml BSA; 50 μM DTT). The assay was started by incubating the reaction mixture in a 96-well plate at 30° C. for 60 minutes. After the incubation, 25 μL ADP-Glo reagent was added, and the reaction was incubated at 30° C. for 40 minutes to stop the reaction and degrade residual ATP. The ADP product was then converted to ATP by adding 50 μL per well of detection reagent. Luminescence was detected after 30 minutes room temperature incubation with the Molecular device I3X plate reader. The IC50 values were calculated from a series of percent inhibition values determined at a range of inhibitor concentration using software routines as implemented in the GraphPad Prism 7 software and SigmaPlot 13.0.
# Chain of GST-tagged recombinant human RIP2 (O43353 whole entry): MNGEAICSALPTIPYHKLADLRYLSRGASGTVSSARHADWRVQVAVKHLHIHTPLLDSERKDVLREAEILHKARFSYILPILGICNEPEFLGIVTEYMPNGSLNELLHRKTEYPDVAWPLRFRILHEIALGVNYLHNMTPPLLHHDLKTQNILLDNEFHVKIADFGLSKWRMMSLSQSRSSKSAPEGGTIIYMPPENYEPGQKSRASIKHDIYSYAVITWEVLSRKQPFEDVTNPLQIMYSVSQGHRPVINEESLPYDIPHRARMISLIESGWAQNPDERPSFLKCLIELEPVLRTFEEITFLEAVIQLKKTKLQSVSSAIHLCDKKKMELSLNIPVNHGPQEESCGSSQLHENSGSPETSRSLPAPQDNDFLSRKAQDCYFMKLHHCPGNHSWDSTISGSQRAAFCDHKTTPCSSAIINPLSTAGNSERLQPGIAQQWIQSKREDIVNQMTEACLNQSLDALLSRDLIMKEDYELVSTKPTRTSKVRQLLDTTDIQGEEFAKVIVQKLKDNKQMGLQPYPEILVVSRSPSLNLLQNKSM
row,SMILES,IC50
1,Nc1nc2ccc(-c3cnc4[nH]ccc4c3)cn2c1C(=O)C1CCNC1 (centres unmarked) [Example 91],101 to 500 nM
2,Nc1nc2c(F)cc(-c3ccc4[nH]ccc4c3)cn2c1C(=O)[C@@H]1C[C@@H]1F [Example 92],101 to 500 nM
3,Cc1c(F)cccc1-c1ccc2nc(NCCN)c(C(=O)[C@@H]3C[C@@H]3F)n2c1 [Example 93],> 1000 nM
4,Nc1nc2c(F)cc(-c3cccc4[nH]ccc34)cn2c1C(=O)[C@@H]1C[C@@H]1F [Example 96],101 to 500 nM
5,Cc1c(-c2cc(F)c3nc(N)c(C(=O)[C@@H]4C[C@@H]4F)n3c2)cnc2[nH]ccc12 [Example 97],1 to 100 nM
6,CC(C)(C)OC(=O)n1cc(-c2ccc3nc(N)c(C(=O)[C@@H]4C[C@@H]4F)n3c2)c2ccccc21 [Example 98],> 1000 nM
7,"Cc1c(F)cccc1-c1cc(F)c2nc(N)c(C(=O)[C@@H]3C[C@@H]3F)n2c1 [Example 99, (2-amino-8-fluoro-6-(3-fluoro-2-methylphenyl)imidazo[1,2-a]pyridin-3-yl)((1S,2S)-2-fluorocyclopropyl)methanone]",101 to 500 nM
8,Nc1nc2ccc(-c3ccc4[nH]cnc4c3)cn2c1C(=O)[C@@H]1C[C@@H]1F [Example 102],1 to 100 nM
9,Cc1c(-c2ccc3nc(N)c(C(=O)[C@@H]4C[C@@H]4F)n3c2)ccc2[nH]cnc12 [Example 103],101 to 500 nM
10,Cc1c(-c2ccc3nc(N)c(C(=O)[C@@H]4C[C@@H]4F)n3c2)cnc2c1ccn2C [Example 106],101 to 500 nM
11,"Cc1c(F)cccc1-c1ccc2nc(N)c(C(=O)N(C)C3CC3)n2c1 [Example 107, 2-amino-N-cyclopropyl-6-(3-fluoro-2-methylphenyl)-N-methylimidazo[1,2-a]pyridine-3-carboxamide]",> 1000 nM
12,Cc1c(F)cccc1-c1ccc2nc(N)c(C(=O)N[C@@H]3C[C@@H]3F)n2c1 [Example 108],101 to 500 nM
13,Cc1c(F)cccc1-c1ccc2nc(N)c(C(=O)NC3CC3)n2c1 [Example 109],101 to 500 nM
14,Nc1nc2ccc(-c3c[nH]c4ccc(Cl)cc34)cn2c1C(=O)[C@@H]1C[C@@H]1F [Example 111],101 to 500 nM
15,"CC(=O)NNC(=O)c1c(N)nc2ccc(-c3cccc(F)c3C)cn12 [Example 112, N′-acetyl-2-amino-6-(3-fluoro-2-methylphenyl)imidazo[1,2-a]pyridine-3-carbohydrazide]",> 1000 nM
16,Nc1nc2ccc(-c3cnc4ccccc4c3)cn2c1C(=O)[C@@H]1C[C@@H]1F [Example 116],101 to 500 nM
17,Nc1nc2ccc(-c3cncc4ccccc34)cn2c1C(=O)[C@@H]1C[C@@H]1F [Example 117],1 to 100 nM
18,Cc1ccccc1-c1ccc2nc(N)c(C(=O)[C@@H]3C[C@@H]3F)n2c1 [Example 118],1 to 100 nM
19,Nc1nc2ccc(-c3ccccc3OCCF)cn2c1C(=O)[C@@H]1C[C@@H]1F [Example 119],101 to 500 nM
20,Nc1nc2ccc(-c3cccc(F)c3OCCF)cn2c1C(=O)[C@@H]1C[C@@H]1F [Example 120],101 to 500 nM
21,CC(C)(C)OC(=O)n1cccc1-c1ccc2nc(N)c(C(=O)[C@@H]3C[C@@H]3F)n2c1 [Example 121],> 1000 nM
22,CC(C)(C)OC(=O)n1ccc(-c2ccc3nc(N)c(C(=O)[C@@H]4C[C@@H]4F)n3c2)c1 [Example 122],> 1000 nM
23,Nc1nc2ccc(-c3cccc(F)c3CCCO)cn2c1C(=O)[C@@H]1C[C@@H]1F [Example 123],101 to 500 nM
24,Nc1nc2ccc(-c3ccc[nH]3)cn2c1C(=O)[C@@H]1C[C@@H]1F [Example 124],> 1000 nM
25,Nc1nc2ccc(-c3cc[nH]c3)cn2c1C(=O)[C@@H]1C[C@@H]1F [Example 125],> 1000 nM
26,Nc1nc2ccc(-c3cccc(F)c3CCO)cn2c1C(=O)[C@@H]1C[C@@H]1F [Example 126],> 1000 nM
27,Nc1nc2ccc(-c3cccc(F)c3CO)cn2c1C(=O)[C@@H]1C[C@@H]1F [Example 127],> 1000 nM
28,Nc1nc2ccc(-c3ccccc3CCO)cn2c1C(=O)[C@@H]1C[C@@H]1F [Example 128],101 to 500 nM
29,Nc1nc2ccc(-c3ccccc3CCCO)cn2c1C(=O)[C@@H]1C[C@@H]1F [Example 129],101 to 500 nM
